In paper PMC5913254, “A novel in vitro metric predicts in vivo efficacy of inhaled silver-based antimicrobials in a murine Pseudomonas aeruginosa pneumonia model” (Scientific Reports, 2018):
Where “and” joins values, the source holds several entries; their conditions need not be identical. Equal entries are not always repeated.

What was measured:
[1] = system: P. aeruginosa strain PA M57-15; test: MIC and MBC determination, standard CLSI protocol with minor modifications; assay type: cell-based, Pseudomonas aeruginosa
Protocol: Pseudomonas aeruginosa isolate PA M57-15 was generously donated by Thomas Ferkol, M.D. (Washington University, St. Louis, MO). PA M57-15 was struck from frozen glycerol stocks on to tryptic soy agar plates (Remel) and incubated overnight at 37 °C in a warm room until individual colonies formed. A single colony was inoculated in 10 mL Mueller-Hinton (MH) broth, grown in a shaking incubator (37 °C, 200 rpm) to log phase (OD650 = 0.4), and utilized for experiments after appropriate dilutions. PA M57-15 bacterial suspension at OD650 = 0.4 corresponds to 2–3 × 10^8 CFU/mL, as verified by repeated serial dilution and plating.
The MIC and MBC determinations of the various SCCs and the Ag-PPE-SCK NPs were performed using a standard CLSI protocol with minor modifications. A mucoid clinical isolate of Pseudomonas aeruginosa, PA M57-15, from a cystic fibrosis patient was utilized, because we have previously studied this strain in murine models of P. aeruginosa lung infection[21],[29],[30]. PA M57-15 grown to log phase as previously described was diluted to a density of 10^6 CFU/mL in MH and added 1:1 in a 96-well plate with different concentrations of SCCs dissolved in 95:5 (v:v) DH2O:DMSO solution or the Ag-PPE-SCKs suspended in DH2O. The final SCC concentrations tested were 0.25, 0.5, 0.75, 1, 1.5, and 2 μg/mL and were increased in two-fold increments from 2 μg/mL to 32 μg/mL. The final DMSO concentrations in the wells was 2.5% (v/v) and had no impact on bacterial growth, as determined by growth in the positive control wells. […] Contents of these clear wells were streaked on agar plates and incubated for an additional 24 hours at 37 °C. […] Three technical replicates were employed for each experiment and a total of three biological replicates were performed on separate days (3 technical replicates x 3 biological replicates = 9 total replicates) to account for day-to-day variations in media, bacterial growth, compound dilutions, as well as other experimental conditions. The MIC and MBC values that were identical for at least two readings out of the three are reported.

[2] = system: immortalized human bronchial epithelial cells (16HBE); test: alamarBlue cytotoxicity assay against 16HBE cells (in vitro LD50); assay type: cell-based; conditions: 24 h
Protocol: (§1) 16HBEs (16HBE14o-), generously provided by Dr. D. Gruenert (University of California, San Francisco, CA) are a human bronchial epithelial cell line transformed with SV40 large T-antigen using the replication-defective pSVori plasmid. 16HBEs were used as a model to determine the relative toxicities of the SCCs to airway cells. Cells between passages 20 to 35 were cultured in Minimum Essential Medium with Earle’s Balanced Salts (Sigma Aldrich) and non-essential amino acids supplemented with penicillin-streptomycin (1%), L-glutamine (1%), and foetal bovine serum (10%). Additionally, primary human dermal fibroblasts (HDFs) were also utilized for in vitro toxicity studies. HDFs at passage 4 were generously donated by Carol Tamminga, M.D. (University of Texas Southwestern Medical Center, Dallas, TX). HDFs were cultured in Dulbecco’s Modified Eagle Medium (Sigma Aldrich) supplemented with penicillin-streptomycin (1%), L-glutamine (1%), and foetal bovine serum (10%) and were utilized between passage 7 to 14 for in vitro toxicity studies. 16HBE and HDF cultures were assessed for bacterial contamination visually, while mycoplasma contamination was assessed both visually and through a PCR-based Universal Mycoplasma Detection Kit assay (ATCC® 30-1012K^TM).
(§2) 16HBEs and HDFs grown to confluency (90–95%) as described above were sub-cultured, re-suspended in the appropriate medium, and seeded in wells of clear 96-well plate(s) at either 25,000 cells/well (16HBEs) or 15,000 cells/well (HDFs) with 100 µL of feeding media and incubated over 24 hours at 37 °C, 5% CO2, and 100% RH. The cells were then washed once with sterile phosphate buffered saline (PBS, pH = 7.4) and 100 µL of SCCs or the Ag-PPE-SCKs at various concentrations in OPTI-MEM® (Invitrogen) with 3.3% (v/v) DMSO, or without for the Ag-PPE-SCKs, was added to the cells. Next, 10 µL of alamarBlue® (Invitrogen) was added to each well and the plates were re-incubated for 24 h. Finally, the plates were measured for optical density at 570 and 600 nm with a spectrophotometer (POLARstar Omega, BMG Labtech or Cytation 5, BioTek). Untreated cells and media only (with alamarBlue®) were used as controls. […] The relative viabilities of the cells were determined as per the manufacturer’s instructions and using GraphPad Prism® software to generate a non-linear curve fit and interpolate the in vitro LD50 for each SCC. This assay was performed with three technical replicates for each SCC and Ag-PPE-SCK dose and biological replicates were performed in quadruplicate on separate days (3 technical replicates × 4 biological replicates = 12 total replicates). The DEM for each SCC was determined as the ratio of the molar LD50 and MBC concentrations (LD50/MBC).

[3] = system: primary human dermal fibroblasts (HDFs); test: alamarBlue cytotoxicity assay against HDFs (in vitro LD50); assay type: cell-based; conditions: 24 h
Protocol: as §1, §2

[4] = system: 16HBE cells vs. PA M57-15; test: Drug efficacy metric (DEM = LD50/MBC) using 16HBEs; set-up: species or system human; conditions: 16HBE-based DEM; one-way ANOVA with Tukey's test or unpaired t-test
Protocol: as §2, with “This assay was performed with three technical replicates for each SCC and Ag-PPE-SCK dose and biological replicates were performed in quadruplicate on separate days (3 technical replicates × 4 biological replicates = 12 total replicates).” left out

[5] = system: Pseudomonas aeruginosa (PA M57-15); test: Murine P. aeruginosa acute lung infection model, nebulized treatment; assay type: in vivo, mouse; conditions: for survival: 25 µmol Ag+ per dose nebulized, 5 doses, sham 9.1%; for survival / survival compared with sham treatment: 90:10 DH2O:DMSO, head-to-head of four SCCs; for clinical illness score (signs of illness): 25 µmol per dose nebulized with DMSO, SCC1 and SCC22: at 24 hours following infection, scorers not blinded; for survival compared with sham treatment: 25 µmol per dose nebulized
Protocol: Weight-matched male C57BL/6 J mice aged 6–8 weeks were used for all acute lung infection studies, which were approved by the University of Texas Southwestern Medical Center Institutional Animal Care and Use Committee (IACUC). All experiments were performed in accordance with relevant guidelines and regulations. Animals were housed in a barrier facility under pathogen-free conditions until they were inoculated with bacteria. The previously described clinical mucoid strain of Pseudomonas aeruginosa (PA M57-15) grown to mid-log phase (OD650 = 0.4) in Luria broth (LB) was used for all pulmonary infection experiments. The density of the bacterial culture (CFU/mL) was determined using serial dilution and plating for each experiment.
Mice were anesthetized by intraperitoneal administration of a ketamine (60 mg/kg) and xylazine (8 mg/kg) cocktail, intranasally inoculated using 75 µL of the bacterial inoculum (~1 × 10^6 CFU per mouse), and assigned randomly into treatment groups. Treatment was administered at 1-hour post-inoculation and again every 12 hours thereafter up to a 5th dose at 49 hours via nebulization of 5 mL of SCC solutions (containing 25 µmol total Ag^+ cation per dose for each SCC) or sham treatment. For the head-to-head comparison of unencapsulated SCC1, SCC22, SCC23, and SCC28, all SCCs were dissolved in a 90:10 (v/v) mixture of DH2O and DMSO; whereas, the sham treatment consisted of 90:10 DH2O: DMSO, but with dilute phosphate buffer (1 mM Na2HPO4, 0.2 mM KH2PO4) incorporated to provide tonicity for nebulization. For the dose-response studies with unencapsulated SCC1 and SCC22, 5 mL of SCCs dissolved in DH2O alone or 90:10 (v/v) mixture of DH2O and DMSO was nebulized to provide a total dose of 25, 50, or 100 µmol Ag^+ cation per dose for each SCC. Nebulization of the SCCs was achieved using a previously described experimental setup comprising of an Aeroneb Lab apparatus connected to a multi-dosing chamber. Throughout each study, the mice were monitored constantly and times of death were recorded. Every 24 hours, the mice were weighed and assigned cumulative clinical illness scores (0–6) based on their resting posture (0–2), condition of their fur (0–1), and overall activity level (0–3), with higher scores indicating more severe illness. The investigators assigning the scores were not blinded to the treatment group, which is a limitation of this study. The survival studies were all performed in duplicate with results pooled.
In vivo efficacy testing of the silver loaded, polyphosphoester, shell-crosslinked, knedel-like nanoparticles (Ag-PPE-SCKs) was carried out in a similar manner as with the SCCs. Ag-PPE-SCKs were suspended in 5 mL DH2O to a concentration of ~5 mM silver, as previously determined by mass spectrometry, and empty PPE-SCKs were suspended corresponding to the same mass of polymer. SCC1, a comparator treatment, was similarly dissolved to 5 mM in 5 mL DH2O, and sham consisted of the DH2O:phosphate buffer solution used in the other studies. The infection model was carried out as before; however, the Ag-PPE-SCKs and PPE-SCKs were dosed at 1 and 25 hours post-infection with the nanoparticles and given sham treatment at 13, 37, and 49 hours. SCC1 and sham treatment groups were dosed at all five time points. Survival studies were performed twice and pooled, though SCC1 was only used in one of the survival studies.

[6] = system: Pseudomonas aeruginosa (PA M57-15); test: Histology of lungs of infected, treated mice; assay type: in vivo, mouse; conditions: lungs at 25 hours after three treatments; for aggregate histological score: inflammation, consolidation, congestion/haemorrhage each 0 to +3, sham +6
Protocol: Male C57BL/6 J mice were infected with PA M57-15 and treated with the four SCCs or vehicle as described above. At 25 hours, following three treatments, the mice were humanely euthanized by cervical dislocation following anesthetization by a ketamine/xylazine cocktail. Lungs of the mice were harvested aseptically, the lung sections fixed in 10% formalin for a minimum of 12 hours, and embedded in paraffin using an automated rapid tissue processor (Peloris-Leica Microsystems Inc., Buffalo Grove, IL). Two 5-micron thick sections were obtained from each paraffin block and stained with Haematoxylin/Eosin on an automated stainer (Symphony, Ventana-Roche, Tucson, AZ). Sections were evaluated by light microscopy (Nikon Eclipse-Ni, Nikon Instruments, Inc., Americas), scored using a semi-quantitative scale from 0 (negative), +1 (mild), +2 (moderate), and +3 (severe) for the following parameters: inflammation, consolidation, congestion/haemorrhage, and an aggregate score was calculated for each group. The presence of bacterial colonies if any was also noted. A pathologist, who was blinded to the treatment received by the mice, performed the examination and analysis of tissues. A total of two mice were used in each treatment group.

[7] = set-up: method as in PMID 20449175; conditions: cited from earlier work
[8] = system: primary tracheal epithelial cells grown at air-liquid interface; set-up: method as in PMID 20005242; conditions: higher than 16HBE; cited from earlier work
[9] = set-up: method as in PMID 23930200; conditions: radiolabelled Ag+; cited from earlier work
[10] = 100 µmol, DMSO-free formulation

Compound | MBC ([1]; PA M57-15) | MIC ([1]; PA M57-15) | MBC ([1]; PA M57-15, molar basis) | MIC ([1]; PA M57-15, molar basis) | LD50 [2] | LD50 [3] | DEM compared between formulations [4] | survival [5] | clinical illness score (signs of illness) [5] | survival advantage compared with sham treatment ([5]; 25 µmol, DMSO-free formulation) | survival advantage compared with sham treatment ([5]; 25 µmol, with DMSO) | survival advantage compared with sham treatment ([5]; 50 µmol, DMSO-free formulation) | survival advantage compared with sham treatment [5, 10] | survival advantage compared with sham treatment ([5]; 100 µmol, with DMSO) | bacterial colonies in lung tissue [6] | aggregate histological score [6] | survival compared with sham treatment [5] | also measured
CC(=O)[O][Ag][c]1n(CCCO)c(Cl)c(Cl)[n+]1C [SCC22] | 1.0 µg/mL | 0.75 µg/mL | 2.7 µM | 2.0 µM and 2 µM | 224 µM | 22.7 µM | significantly higher DEMs than SCC23 and SCC28 | 42% | significantly lower signs of illness | 25% | 58% | 67% | 67% | did not yield any survival advantage | No bacterial colonies were identified | +3 |  | survival advantage compared with sham treatment ([5]; 50 µmol, with DMSO): 50%; water solubility [7]: up to 110 g/L
CCCCCCn1c(Cl)c(Cl)[n+](Cc2ccc3ccccc3c2)[c]1[Ag][O]C(C)=O [SCC28] | 1.0 µg/mL | 0.50 µg/mL | 1.9 µM | 0.95 µM | 58.1 µM | 9.8 µM |  |  |  |  |  |  |  |  | bacterial colonies were not identified | 4 | significantly lower survival | 
CC(=O)[O][Ag][c]1n(Cc2ccc3ccccc3c2)c(Cl)c(Cl)[n+]1Cc1ccc2ccccc2c1 [SCC23] | 1.0 µg/mL | 0.50 µg/mL | 1.7 µM | 0.86 µM | 14.7 µM | 14.2 µM |  |  | appeared the most infirm at each time-point |  |  |  |  |  | bacterial colonies were not identified | +4 | significantly lower survival | 
CC(=O)[O][Ag][c]1n(C)c2c(c(=O)n(C)c(=O)n2C)[n+]1C [SCC1] | 1.5 µg/mL | 0.75 µg/mL | 4.0 µM and 4 µM | 2.0 µM and 2 µM | 297 µM | 25.8 µM | significantly higher DEMs than SCC23 and SCC28 | 25% | significantly lower signs of illness | 58% | 42% | 64% | 73% | 17% | complete absence of bacterial colonies | +4 |  | survival advantage compared with sham treatment ([5]; ~5 mM silver in 5 mL DH2O nebulized, Ag-PPE-SCKs dosed at 1 and 25 h, SCC1 at all five time points): 50%; LD50 of primary cells relative to that of 16HBE [8]: about 2 log10; accumulation in the liver [9]: minimal accumulation
